From patent US20230382925A1, “MODULATORS OF CYSTIC FIBROSIS TRANSMEMBRANE CONDUCTANCE REGULATOR” (VERTEX PHARMACEUTICALS INCORPORATED, priority 2020, published 2023)
Read-outs that look alike come from different tables or passages of the source. One block for each molecule: values may come before it.

Target: CFTR (Homo sapiens, UniProt P13569)
Test: Membrane Potential Dye, Enteroid Assay B
Assay type: cell-based
How it was run: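 Human intestinal enteroid cells exposed to compound 18-24 h at 37 °C, then loaded with methyl oxonol membrane-potential dye plus CaCC blockers. Chloride transport triggered in chloride-free buffer with 10 μM forskolin, 100 μM IBMX, 300 nM Compound III; fluorescence read 15 min, expressed as % of triple-corrector/potentiator combination control.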

[1] = Table 10, read-out: Ent. B EC50

Chain of CFTR (P13569 with tags, fused parts or gaps DEL508-508): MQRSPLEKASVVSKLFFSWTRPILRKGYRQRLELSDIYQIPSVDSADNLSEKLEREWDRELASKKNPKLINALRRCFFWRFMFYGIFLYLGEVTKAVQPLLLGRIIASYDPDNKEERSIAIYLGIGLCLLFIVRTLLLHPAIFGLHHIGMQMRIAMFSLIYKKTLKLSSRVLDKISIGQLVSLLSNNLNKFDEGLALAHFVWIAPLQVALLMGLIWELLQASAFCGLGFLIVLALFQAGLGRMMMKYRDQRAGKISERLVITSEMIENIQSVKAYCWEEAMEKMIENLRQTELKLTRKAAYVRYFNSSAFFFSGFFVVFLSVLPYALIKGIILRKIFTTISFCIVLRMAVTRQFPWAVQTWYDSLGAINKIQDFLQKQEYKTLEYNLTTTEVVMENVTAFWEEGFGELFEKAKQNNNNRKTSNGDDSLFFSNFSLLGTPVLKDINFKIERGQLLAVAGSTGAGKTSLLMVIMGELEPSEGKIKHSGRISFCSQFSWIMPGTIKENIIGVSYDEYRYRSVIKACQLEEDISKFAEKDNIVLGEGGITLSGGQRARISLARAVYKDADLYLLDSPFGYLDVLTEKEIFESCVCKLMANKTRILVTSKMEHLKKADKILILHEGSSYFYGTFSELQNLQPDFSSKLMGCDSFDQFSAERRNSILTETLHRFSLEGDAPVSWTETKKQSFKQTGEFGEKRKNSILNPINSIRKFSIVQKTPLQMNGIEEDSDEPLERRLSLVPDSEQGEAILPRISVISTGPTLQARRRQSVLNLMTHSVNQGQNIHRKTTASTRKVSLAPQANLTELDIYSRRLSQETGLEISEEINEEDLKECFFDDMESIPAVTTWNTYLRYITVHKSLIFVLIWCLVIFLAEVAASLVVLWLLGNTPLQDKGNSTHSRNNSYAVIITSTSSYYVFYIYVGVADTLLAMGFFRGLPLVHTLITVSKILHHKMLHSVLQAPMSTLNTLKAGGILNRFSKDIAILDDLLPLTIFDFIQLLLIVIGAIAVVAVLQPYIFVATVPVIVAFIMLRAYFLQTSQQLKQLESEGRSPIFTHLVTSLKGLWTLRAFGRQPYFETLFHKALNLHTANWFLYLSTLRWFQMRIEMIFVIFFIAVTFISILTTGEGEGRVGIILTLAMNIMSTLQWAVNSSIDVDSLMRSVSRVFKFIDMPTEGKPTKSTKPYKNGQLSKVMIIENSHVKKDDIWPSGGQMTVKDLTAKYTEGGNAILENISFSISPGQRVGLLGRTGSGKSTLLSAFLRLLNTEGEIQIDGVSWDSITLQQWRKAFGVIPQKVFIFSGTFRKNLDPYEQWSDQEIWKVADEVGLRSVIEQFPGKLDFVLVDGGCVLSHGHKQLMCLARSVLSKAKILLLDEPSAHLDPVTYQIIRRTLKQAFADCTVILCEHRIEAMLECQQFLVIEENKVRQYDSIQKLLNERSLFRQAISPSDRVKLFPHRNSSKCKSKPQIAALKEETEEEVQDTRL

SMILES: Cc1cccc(C)c1-c1cc2nc(n1)NS(=O)(=O)c1cccc(c1)C(=O)N(C1CC3(C1)CN(C(=O)OC(C)C)C3)[C@H](CC1(C(F)(F)F)CC1)CO2 [Compound 133, Propan-2-yl 6-[(11R)-6-(2,6-dimethylphenyl)-2,2,13-trioxo-11-{[1-(trifluoromethyl)cyclopropyl]methyl}-9-oxa-2λ^6-thia-3,5,12,19-tetraazatricyclo[12.3.1.14,8]nonadeca-1(17),4,6,8(19),14(18),15-hexaen-12-yl]-2-azaspiro[3.3]heptane-2-carboxylate]
Ent. B Max Activity (%) (Table 9): +++ (+++ is >60%)
EC50 (Table 9, read-out: Ent. B EC50): < 1000 nM

SMILES: Cc1cccc(C)c1-c1cc2nc(n1)NS(=O)(=O)c1cccc(n1)C(=O)N(C1CC3(CC3)C1)[C@H](CC(C)C)CO2 [Compound 164, (11R)-6-(2,6-Dimethylphenyl)-11-isobutyl-2,2-dioxo-12-spiro[2.3]hexan-5-yl-9-oxa-2λ^6-thia-3,5,12,18,19-pentazatricyclo[12.3.1.14,8]nonadeca-1(18),4(19),5,7,14,16-hexaen-13-one]
Ent. B Max Activity (%): +++ (+++ is >60%)
EC50 (read-out: Ent. B EC50): < 1000 nM

SMILES: Cc1cccc(C)c1-c1cc2nc(n1)NS(=O)(=O)c1cccc(c1)C(=O)N(C1CC3(CCN(C(=O)OC(C)C)CC3)C1)C[C@@H](C)O2 [Compound 181, Isopropyl 2-[(10R)-6-(2,6-dimethylphenyl)-10-methyl-2,2,13-trioxo-9-oxa-2λ^6-thia-3,5,12,19-tetrazatricyclo[12.3.1.14,8]nonadeca-1(18),4(19),5,7,14,16-hexaen-12-yl]-7-azaspiro[3.5]nonane-7-carboxylate]
Ent. B Max Activity (%): +++ (+++ is >60%)
EC50 (read-out: Ent. B EC50): < 1000 nM

SMILES: CC(C)C[C@@H]1COc2cc(-c3c(C(F)(F)F)cccc3C(F)(F)F)nc(n2)NS(=O)(=O)c2cccc(c2)C(=O)N1C1CC2(CC2)C1 [Compound 186, (11R)-6-[2,6-Bis(trifluoromethyl)phenyl]-11-isobutyl-2,2-dioxo-12-spiro[2.3]hexan-5-yl-9-oxa-2λ^6-thia-3,5,12,19-tetrazatricyclo[12.3.1.14,8]nonadeca-1(18),4,6,8(19),14,16-hexaen-13-one]
Ent. B Max Activity (%) (Table 9): ++ (++ is 30-60%)
EC50 (Table 9, read-out: Ent. B EC50): < 1000 nM

Second part, the molecule after the results:

Ent. B Max Activity (%): +++ (+++ is >60%)
EC50 (read-out: Ent. B EC50): < 1000 nM
SMILES: COCCN1CCC2(CC1)CC(N1C(=O)c3cccc(c3)S(=O)(=O)Nc3nc(cc(-c4c(C)cccc4C)n3)OC[C@H]1CC(C)(C)C)C2 [Compound 138, (11R)-6-(2,6-Dimethylphenyl)-11-(2,2-dimethylpropyl)-12-[7-(2-methoxyethyl)-7-azaspiro[3.5]nonan-2-yl]-2,2-dioxo-9-oxa-2λ^6-thia-3,5,12,19-tetrazatricyclo[12.3.1.14,8]nonadeca-1(18),4(19),5,7,14,16-hexaen-13-one]

Ent. B Max Activity (%) (Table 10): +++ (+++ is >60%)
EC50 [1]: < 1000 nM
SMILES: Cc1cccc(C)c1-c1cc2nc(n1)NS(=O)(=O)c1cccc(c1)C(=O)N(C1CC3(CCN3C(=O)CO)C1)[C@H](CC(C)(C)C)CO2 (stereo partly drawn) [Compound 146, (11R)-6-(2,6-Dimethylphenyl)-11-(2,2-dimethylpropyl)-12-[1-(2-hydroxyacetyl)-1-azaspiro[3.3]heptan-6-yl]-2,2-dioxo-9-oxa-2λ^6-thia-3,5,12,19-tetrazatricyclo[12.3.1.14,8]nonadeca-1(18),4(19),5,7,14,16-hexaen-13-one]

Ent. B Max Activity (%) (Table 10): +++ (+++ is >60%)
EC50 [1]: 1000 to 3000 nM
SMILES: Cc1cccc(C)c1-c1cc2nc(n1)NS(=O)(=O)c1cccc(c1)C(=O)N(C1CC(CO)(CO)C1)[C@H](CC(C)(C)C)CO2 [Compound 158, (11R)-12-[3,3-Bis(hydroxymethyl)cyclobutyl]-6-(2,6-dimethylphenyl)-11-(2,2-dimethylpropyl)-9-oxa-2λ^6-thia-3,5,12,19-tetraazatricyclo[12.3.1.14,8]nonadeca-1(17),4(19),5,7,14(18),15-hexaene-2,2,13-trione]
